Test results taken from patent publication US6358698B1 (Acadia Pharmacueticals Inc., priority 1998, dated 2002).
Read-outs that look alike come from different tables or passages of the source. One block for each compound: values may come before it.

What was measured:
human 5-HT2C receptor = biological target: T1, human 5-HT2C receptor (Homo sapiens, UniProt P28335); experiment: R-SAT functional assay, constitutively active wild type 5-HT2C receptor; format: cell-based; details: for 5-HT2C Receptor Negative Log EC50 (inverse agonism): Table 3, 50 ng per well receptor DNA, assayed as agonists and inverse agonists; for EC50: read-out: 5-HT2C Receptor Negative Log EC50 (inverse agonism) (converted)
T1 construct: expressed in transfected cells; host or cells: not restated for 5-HT2C; R-SAT as for 5-HT2A (NIH 3T3)
T1 sequence (P28335 33-458): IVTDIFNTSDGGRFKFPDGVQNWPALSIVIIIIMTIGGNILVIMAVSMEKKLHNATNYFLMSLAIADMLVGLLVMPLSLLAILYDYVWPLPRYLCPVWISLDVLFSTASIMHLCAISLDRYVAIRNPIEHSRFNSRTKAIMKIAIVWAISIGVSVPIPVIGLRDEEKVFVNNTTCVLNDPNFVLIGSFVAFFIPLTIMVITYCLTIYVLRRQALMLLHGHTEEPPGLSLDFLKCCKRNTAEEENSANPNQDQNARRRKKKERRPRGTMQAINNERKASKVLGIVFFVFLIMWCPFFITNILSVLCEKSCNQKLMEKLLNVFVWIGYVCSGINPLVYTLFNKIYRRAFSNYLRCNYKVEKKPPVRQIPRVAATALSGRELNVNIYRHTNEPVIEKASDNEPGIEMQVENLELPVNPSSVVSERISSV

5-HT2A receptor = biological target: T2, 5-HT2A receptor (Homo sapiens, UniProt P28223); experiment: R-SAT functional assay, constitutively active wild type 5-HT2A receptor in NIH 3T3 cells; format: cell-based; details: for Negative LOG EC50 (inverse agonism, inhibition of constitutive activity): Table 2, molar negative log EC50, mean of three dose response experiments +/- standard error, 50 ng/well DNA
T2 construct: expressed in transfected cells; host or cells: NIH 3T3 (mouse fibroblast)
T2 sequence (P28223 whole entry): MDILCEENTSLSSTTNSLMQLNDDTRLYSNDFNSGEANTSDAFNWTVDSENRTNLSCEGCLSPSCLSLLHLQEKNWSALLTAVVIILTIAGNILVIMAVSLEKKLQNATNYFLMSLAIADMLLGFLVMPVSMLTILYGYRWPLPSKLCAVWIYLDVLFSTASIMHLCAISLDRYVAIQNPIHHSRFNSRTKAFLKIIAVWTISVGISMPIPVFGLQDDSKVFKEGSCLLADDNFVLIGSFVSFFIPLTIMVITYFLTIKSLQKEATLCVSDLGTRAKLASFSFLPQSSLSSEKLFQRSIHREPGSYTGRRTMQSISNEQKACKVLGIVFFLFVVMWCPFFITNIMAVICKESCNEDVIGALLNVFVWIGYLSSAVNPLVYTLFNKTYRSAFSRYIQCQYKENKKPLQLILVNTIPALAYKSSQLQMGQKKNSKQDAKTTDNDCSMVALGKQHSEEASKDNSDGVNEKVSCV

[1] = Table 3, 50 ng/well receptor DNA, read-out: 5-HT2A Receptor Negative Log EC50 (inverse agonism) (converted)
[2] = read-out: Negative LOG EC50 (inverse agonism, inhibition of constitutive activity) (converted)
[3] = Table 3, 50 ng/well receptor DNA
[4] = compounds screened at 300-500 nM, 50 ng/well receptor DNA, […], mean of duplicates
[5] = compounds screened at 300-500 nM, 50 ng/well receptor DNA, inhibition from basal, referenced to ritanserin (90-100%), mean of duplicates

SMILES: OCCN1CCN([C@@H]2C[C@@H](c3ccc(F)cc3)c3ccc(C(F)(F)F)cc32)CC1 (racemic) [Tefludazine]
- EC50 (human 5-HT2C receptor): 5.25 nM
- EC50 (5-HT2A receptor; [1]): 0.955 nM
- EC50 (5-HT2A receptor; [2]): 0.955 nM

SMILES: OCCN1CCN(CC/C=C2/c3ccccc3Sc3ccc(C(F)(F)F)cc32)CC1 [CIS-FLUPENTIXOL]
- 5-HT2C Receptor Negative Log EC50 (inverse agonism) (human 5-HT2C receptor): No Intrinsic
- Negative LOG EC50 (inverse agonism, inhibition of constitutive activity) (5-HT2A receptor): 8.04 +/− 0.10
- 5-HT2A Receptor Negative Log EC50 (inverse agonism) (5-HT2A receptor; [3]): 8.04 +/− 0.10
- % INHIBITION (screen for inverse agonism at 5-HT2A receptors) (5-HT2A receptor; [4]): 45%

SMILES: O=C(CCCN1CCC(O)(c2cccc(C(F)(F)F)c2)CC1)c1ccc(F)cc1 [TRIFLUPERIDOL]
- EC50 (human 5-HT2C receptor): > 10000 nM
- EC50 (5-HT2A receptor; [1]): 25.7 nM
- EC50 (5-HT2A receptor; [2]): 25.7 nM

SMILES: CCN(CC)CCCN1c2ccccc2Sc2ccc(Cl)cc21 [Chlorproethizene]
- 5-HT2C Receptor Negative Log EC50 (inverse agonism) (human 5-HT2C receptor): <5.0
- 5-HT2A Receptor Negative Log EC50 (inverse agonism) (5-HT2A receptor; [3]): 7.70 +/− 0.33

SMILES: CSc1ccc2c(c1)C(N1CCN(C)CC1)Cc1ccccc1S2 (centres unmarked) [METHIOTHEPIN]
- % INHIBITION (screen for inverse agonism at 5-HT2A receptors) (5-HT2A receptor): 79%

SMILES: CC1CCN(CCCC(=O)c2ccc(F)cc2)CC1 [Melperone]
- 5-HT2C Receptor Negative Log EC50 (inverse agonism) (human 5-HT2C receptor): No Intrinsic

SMILES: CN1CCN(C2Cc3ccccc3Sc3ccc(Cl)cc32)CC1.O=C(O)/C=C\C(=O)O (centres unmarked) [OCTOCLOTHEPIN]
- 5-HT2A Receptor Negative Log EC50 (inverse agonism) (5-HT2A receptor; [3]): 9.74 +/− 0.98
- % INHIBITION (screen for inverse agonism at 5-HT2A receptors) (5-HT2A receptor; [4]): 76%

SMILES: CN1CCN(C2=Nc3ccccc3Sc3ccc(Cl)cc32)CC1 [Clothiapine]
- EC50 (human 5-HT2C receptor): 479 nM
- EC50 (5-HT2A receptor; [1]): 2.82 nM

SMILES: CN(C)CCCN1c2ccccc2Sc2ccccc21 [Promazine]
- 5-HT2C Receptor Negative Log EC50 (inverse agonism) (human 5-HT2C receptor): Agonist

SMILES: CCN1CCCC1CNC(=O)c1cc(S(N)(=O)=O)ccc1OC (centres unmarked) [Sulpiride]
- 5-HT2C Receptor Negative Log EC50 (inverse agonism) (human 5-HT2C receptor): No Intrinsic

SMILES: N[C@@H](Cc1c[nH]c2ccc(O)cc12)C(=O)O [5-hydroxy-Ltryptophan]
- % INHIBITION (screen for inverse agonism at 5-HT2A receptors) (5-HT2A receptor; [5]): 53%

SMILES: CN1CCCCC1CCN1c2ccccc2Sc2ccc([S+](C)[O-])cc21 (centres unmarked) [Mesioridazine]
- 5-HT2C Receptor Negative Log EC50 (inverse agonism) (human 5-HT2C receptor): No Intrinsic
- 5-HT2A Receptor Negative Log EC50 (inverse agonism) (5-HT2A receptor; [3]): 7.00 +/− 0.30

SMILES: CN(C)CCCN1c2ccccc2Sc2cccnc21 [Prothypendyl]
- 5-HT2C Receptor Negative Log EC50 (inverse agonism) (human 5-HT2C receptor): Agonist
- 5-HT2A Receptor Negative Log EC50 (inverse agonism) (5-HT2A receptor; [3]): 6.60 +/− 0.44

SMILES: OCCN1CCN(CC/C=C2\c3ccccc3Sc3ccc(C(F)(F)F)cc32)CC1 [Trans-Flupentixol]
- 5-HT2C Receptor Negative Log EC50 (inverse agonism) (human 5-HT2C receptor): 5.55 +/− 0.37
- Negative LOG EC50 (inverse agonism, inhibition of constitutive activity) (5-HT2A receptor): 6.77 +/− 0.21
- 5-HT2A Receptor Negative Log EC50 (inverse agonism) (5-HT2A receptor; [3]): 6.77 +/− 0.21

SMILES: Cc1nc2sccn2c(=O)c1CCN1CCC(=C(c2ccc(F)cc2)c2ccc(F)cc2)CC1 [RITANSERIN]
- Functional character at 5-HT2A receptor (inhibits signaling below baseline) (5-HT2A receptor; PSI vector expression, in words): inverse agonist

Next, values leading:

- 5-HT2C Receptor Negative Log EC50 (inverse agonism) (human 5-HT2C receptor): No Intrinsic
SMILES: CN1CCN(CC/C=C2/c3ccccc3Sc3ccc(S(=O)(=O)N(C)C)cc32)CC1 [Thiothixene]

- EC50 (human 5-HT2C receptor): 501 nM
SMILES: CN1CCN(C2=Nc3ccccc3Oc3ccc(Cl)cc32)CC1 [LOXAPINE]

- % INHIBITION (screen for inverse agonism at 5-HT2A receptors) (5-HT2A receptor; [5]): 92%
SMILES: Cc1nc2ccccn2c(=O)c1CCN1CCC(C(=O)c2ccc(F)cc2)CC1 [PIRENPIRONE]

- 5-HT2C Receptor Negative Log EC50 (inverse agonism) (human 5-HT2C receptor): No Intrinsic
SMILES: Cc1ccc(C2(O)CCN(CCCC(=O)c3ccc(F)cc3)CC2)cc1 [Moperone]

- 5-HT2C Receptor Negative Log EC50 (inverse agonism) (human 5-HT2C receptor): No Intrinsic
SMILES: O=C(CCCN1CCC(O)(c2ccc(Br)cc2)CC1)c1ccc(F)cc1 [Bromperidol]

- 5-HT2C Receptor Negative Log EC50 (inverse agonism) (human 5-HT2C receptor): No Intrinsic
- EC50 (5-HT2A receptor; [1]): 15.8 nM
SMILES: CCNC(=O)N1CCN(CCCC(c2ccc(F)cc2)c2ccc(F)cc2)CC1 [Amperozide]

- 5-HT2C Receptor Negative Log EC50 (inverse agonism) (human 5-HT2C receptor): No Intrinsic
SMILES: O=C(CCCN1CCC2(CC1)C(=O)NCN2c1ccccc1)c1ccc(F)cc1 [SPIPERONE]

- EC50 (human 5-HT2C receptor): 513 nM
- EC50 (5-HT2A receptor; [1]): 1.82 nM
SMILES: O=C1CC2(CCCC2)CC(=O)N1CCCCN1CCN(c2nsc3ccccc23)CC1 [Tiospirone]

- EC50 (human 5-HT2C receptor): 1290 nM
- EC50 (5-HT2A receptor; [1]): 30.2 nM
SMILES: CN1CCN(C2=Nc3ccccc3Cc3ccccc32)CC1 [Perlapine]
